# Assay results: US7985731B2, “Sugar chain added GLP-1 peptide” (Otsuka Chemical Holdings Co., Ltd., priority 2007, dated 2011)
# How the values were obtained:
# C57BL/6JJcl mice = assay: Test Example 7: Oral Glucose Tolerance Test (OGTT); assay type: in vivo
# Procedure: After 30 minutes, a glucose solution was orally administered at a dose of 1 mg/g. Blood was collected from the orbits before the glucose administration and 30 minutes, 60 minutes and 120 minutes after the glucose administration. Blood-sugar levels were measured using ACCU-CHEK Aviva (Roche Diagnostics).
# After the oral administration of the glucose solution to the mice fasted overnight, blood was collected over time, and blood-sugar levels were measured.
# The correlation between the oligosaccharide chain structure and the activity was studied in mouse OGTT.
# mouse GLP-1 receptor = target: T1, mouse GLP-1 receptor (Mus musculus, UniProt O35659); assay: Test Example 6: ability to synthesize cAMP in mouse GLP-1 receptor-expressing CHO-K1 cells; assay type: cell-based
# T1 construct: expressed in transfected cells
# T1 sequence (O35659 22-463): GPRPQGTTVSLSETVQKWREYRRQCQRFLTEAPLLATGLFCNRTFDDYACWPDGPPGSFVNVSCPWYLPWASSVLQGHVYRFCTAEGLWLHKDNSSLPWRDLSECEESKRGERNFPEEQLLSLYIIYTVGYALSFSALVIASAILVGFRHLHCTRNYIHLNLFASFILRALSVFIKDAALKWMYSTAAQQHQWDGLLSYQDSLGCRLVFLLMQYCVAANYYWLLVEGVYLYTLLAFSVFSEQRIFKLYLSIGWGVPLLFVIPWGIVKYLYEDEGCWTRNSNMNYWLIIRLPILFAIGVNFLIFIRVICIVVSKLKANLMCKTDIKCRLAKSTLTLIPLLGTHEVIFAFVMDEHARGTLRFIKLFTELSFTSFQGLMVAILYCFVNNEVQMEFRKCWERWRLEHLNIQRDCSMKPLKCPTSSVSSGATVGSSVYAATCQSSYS
# Procedure: 1. Construction of Mouse GLP-1 Receptor-Expressing Vector
# A mouse GLP1 receptor sense primer (5′-[…]-3′) (SEQ ID NO: 152) and a mouse GLP-1 receptor antisense primer (5′-[…]-3′) (SEQ ID NO: 153) capable of binding to the 5′ and 3′ ends of mouse GLP-1 receptor cDNA were separately synthesized. PCR was performed using Ex Taq polymerase (TaKaRa) with cDNA (Clone ID: 40046534, Open Biosystems) as a template. Specifically, 50 μL in total of reaction solution consisting of 1 μL of template cDNA (10 ng/μL), 4 μL of 2.5 mM dNTPs, 1 μL of primer solution mixtures (each 50 μM), 5 μL of ×10 Ex Taq polymerase Buffer, 0.25 μL of Ex Taq polymerase and 38.75 μL of sterilized water was used and allowed to react by 94° C. for 1 minute; 94° C. for 45 seconds, 55° C. for 1 minute and 72° C. for 2 minutes (35 cycles); and 72° C. for 10 minutes. The PCR reaction product was electrophoresed on 1% agarose gel, and the cDNA fragment was purified using Wizard SV Gel and PCR Clean-up System (Promega) and treated with restriction enzymes (EcoRI and NheI) to obtain mouse GLP-1 receptor cDNA.
# To efficiently obtain cells highly expressing a mouse GLP-1 receptor, a pIRES-gfp vector was used as an expression vector. This vector was prepared by inserting, to a vector pEGFP-N1 (Clontech), an IRES gene-containing DNA fragment obtained by the restriction enzyme treatment (Sal I and BamHI) of pIRESpuro2 (Clontech).
# The mouse GLP-1 receptor cDNA fragment was inserted to pIRES-gfp to thereby obtain a mouse GLP-1 receptor-expressing vector mGLP-1R/pIRES-gfp. The DNA sequence of the obtained vector was confirmed using ABI3100-Avant (Applied Biosystems).
# 2. Preparation of Mouse GLP-1 Receptor-Expressing CHO-K1 Cells
# CHO-K1 cells (ATCC catalog No. CCL-61) were transfected with the obtained mGLP-1R/pIRES-gfp using FuGENE (registered trademark) (Roche) according to the instruction manual. The transfected CHO-K1 cells were cultured in RPMI1640 medium (Wako Pure Chemical Industries) containing 10% FCS (Hyclone) and penicillin-streptomycin (SIGMA). Drug selection was conducted by the addition of 1.0 mg/ml G418 (Wako Pure Chemical Industries). The drug resistance cells were sorted with a cell sorter (EPICS ALTRA, Beckman Coulter) using a GFP expression level as an index. After the sorting, the limiting dilution method was conducted to obtain cells highly expressing GFP, namely, cells highly expressing a mouse GLP-1 receptor. The obtained cells were used as mouse GLP-1 receptor-expressing CHO-K1 cells in the experiment shown below.
# 3. Analysis of Agonist Effect of Oligosaccharide Chain Added GLP-1 Peptide (Ability to Synthesize cAMP)
# The mouse GLP-1 receptor-expressing CHO-K1 cells prepared in the preceding paragraph 2 were used to evaluate the agonist effect of the oligosaccharide chain added GLP-1 peptide using the ability to synthesize cAMP as an index.
# The mouse GLP-1 receptor-expressing CHO-K1 cells were suspended at a concentration of 5×10^5 cells/ml in RPMI1640 medium containing 10% FCS. The cell suspension was seeded at a concentration of 100 μL per well to a flat-bottomed 96-well plate (Falcon) and cultured at 5% CO2 at 37° C. for 16 hours. The culture supernatant was discarded. The oligosaccharide chain added GLP-1 peptide dissolved in Krebs Ringer bicarbonate Buffer containing 2.5 mM glucose was added at a concentration of 100 μL/well and cultured at 37° C. for 30 minutes. The culture supernatant was immediately discarded. The amount of cAMP synthesized in the mouse GLP-1 receptor-expressing CHO-K1 cells was measured using cAMP ELISA Kit (GE Healthcare or Cayman) and used as an index for the agonist effect of the oligosaccharide chain added GLP-1 peptide on mouse GLP-1 receptors.
# GLP-1 increases intracellular cAMP concentrations through the binding to its receptor and promotes insulin secretion. Thus, the activity of the oligosaccharide chain added GLP-1 peptide was evaluated using the ability to synthesize cAMP as an index. […]
# [1] = test system: db/db (BKS.Cg-+Lepr db/+Lepr db/Jcl) mice; assay: Test Example 8: effect of lowering blood-sugar levels in diabetes model mice; assay type: in vivo; details: 9 nmol/kg intraperitoneal
# Procedure: The oligosaccharide chain added GLP-1 peptide prepared in Example 2, 3, 4, 21 or 23 or the GLP-1 prepared in Comparative Example 1 in a PBS solution (9 nmol/10 ml) was intraperitoneally administered at a dose of 10 ml/kg to BKS.Cg−+Lepr^db/+Lepr^db/Jcl mice (10 week old, male). Blood was collected from the orbits before the compound administration and 30 minutes, 60 minutes, 120 minutes, 180 minutes and 300 minutes after the compound administration. Blood-sugar levels were measured using ACCU-CHEK Aviva (Roche Diagnostics).
# The db/db (BKS.Cg−+Lepr^db/+Lepr^db/Jcl) mice serving as diabetes model mice have a mutation in a receptor of leptin which is anorexigenic/energy metabolism-accelerating hormone and develops conditions such as obesity or hyperglycemia.
# Blood-sugar levels were measured over time, and their effects of lowering blood-sugar levels were compared with that of the GLP-1 without oligosaccharide chain addition of Comparative Example 1.
# [2] = 9 nmol/kg intraperitoneal 30 minutes before glucose 1 mg/g oral
SMILES,activity of suppressing rise in blood-sugar levels in OGTT (C57BL/6JJcl mice; 0.09 nmol/kg intraperitoneal),effect of suppressing rise in blood-sugar levels in OGTT (C57BL/6JJcl mice; 0.9 nmol/kg intraperitoneal),effect of suppressing rise in blood-sugar levels in OGTT (C57BL/6JJcl mice; [2]),dose dependence of activity of suppressing rise in blood-sugar levels in OGTT (C57BL/6JJcl mice; doses 0.9 nmol/kg and 0.09 nmol/kg intraperitoneal),"activity of suppressing rise in blood-sugar levels in OGTT relative to GLP-1 (times) (C57BL/6JJcl mice; from doses giving equivalent effect, GLP-1 at 9 nmol/kg)",cAMP synthesis activity compared with GLP-1 (in words) (mouse GLP-1 receptor),effect of lowering blood-sugar levels in db/db mice ([1]; 10-week-old male mice),durability of effect of lowering blood-sugar levels in db/db mice ([1]; up to 300 minutes)
"CC[C@H](C)[C@H](NC(=O)[C@H](Cc1ccccc1)NC(=O)[C@H](CCC(=O)O)NC(=O)[C@H](CCCCN)NC(=O)[C@H](C)NC(=O)[C@H](C)NC(=O)[C@H](CCC(N)=O)NC(=O)CNC(=O)[C@H](CCC(=O)O)NC(=O)[C@H](CC(C)C)NC(=O)[C@H](Cc1ccc(O)cc1)NC(=O)[C@H](CO)NC(=O)[C@H](CO)NC(=O)[C@@H](NC(=O)[C@H](CC(=O)O)NC(=O)[C@H](CO)NC(=O)[C@@H](NC(=O)[C@H](Cc1ccccc1)NC(=O)[C@@H](NC(=O)CNC(=O)[C@H](CCC(=O)O)NC(=O)[C@H](C)NC(=O)[C@@H](N)Cc1c[nH]cn1)[C@@H](C)O)[C@@H](C)O)C(C)C)C(=O)N[C@@H](C)C(=O)N[C@@H](Cc1c[nH]c2ccccc12)C(=O)N[C@@H](CC(C)C)C(=O)N[C@H](C(=O)N[C@@H](CCCCN)C(=O)NCC(=O)N[C@@H](CSCC(=O)N[C@@H]1O[C@H](CO)[C@@H](O[C@@H]2O[C@H](CO)[C@@H](O[C@@H]3O[C@H](CO[C@H]4O[C@H](CO)[C@@H](O)[C@H](O)[C@@H]4O[C@@H]4O[C@H](CO)[C@@H](O[C@@H]5O[C@H](CO[C@]6(C(=O)O)C[C@H](O)[C@@H](NC(C)=O)[C@H]([C@H](O)[C@H](O)CO)O6)[C@H](O)[C@H](O)[C@H]5O)[C@H](O)[C@H]4NC(C)=O)[C@@H](O)[C@H](O[C@H]4O[C@H](CO)[C@@H](O)[C@H](O)[C@@H]4O[C@@H]4O[C@H](CO)[C@@H](O[C@@H]5O[C@H](CO[C@]6(C(=O)O)C[C@H](O)[C@@H](NC(C)=O)[C@H]([C@H](O)[C@H](O)CO)O6)[C@H](O)[C@H](O)[C@H]5O)[C@H](O)[C@H]4NC(C)=O)[C@@H]3O)[C@H](O)[C@H]2NC(C)=O)[C@H](O)[C@H]1NC(C)=O)C(=O)NCC(=O)O)C(C)C [Example 4, 36Cys GLP-1-disialo]",equivalent to that of the GLP-1 at a dose of 9 nmol/kg,suppressed rise in blood-sugar levels almost completely,strong effect of suppressing rise in blood-sugar levels,dose-dependent activity of suppressing rise in blood-sugar levels,about 100 times,activity equal to or more than that of the GLP-1,strong effect of lowering blood-sugar levels,blood-sugar levels were kept at low levels after 300 minutes
"CC[C@H](C)[C@H](NC(=O)[C@H](Cc1ccccc1)NC(=O)[C@H](CCC(=O)O)NC(=O)[C@H](CCCCN)NC(=O)[C@H](C)NC(=O)[C@H](C)NC(=O)[C@H](CCC(N)=O)NC(=O)CNC(=O)[C@H](CCC(=O)O)NC(=O)[C@H](CC(C)C)NC(=O)[C@H](Cc1ccc(O)cc1)NC(=O)[C@H](CO)NC(=O)[C@H](CO)NC(=O)[C@@H](NC(=O)[C@H](CC(=O)O)NC(=O)[C@H](CO)NC(=O)[C@@H](NC(=O)[C@H](Cc1ccccc1)NC(=O)[C@@H](NC(=O)CNC(=O)[C@H](CCC(=O)O)NC(=O)[C@H](C)NC(=O)[C@@H](N)Cc1c[nH]cn1)[C@@H](C)O)[C@@H](C)O)C(C)C)C(=O)N[C@@H](C)C(=O)N[C@@H](Cc1c[nH]c2ccccc12)C(=O)N[C@@H](CC(C)C)C(=O)N[C@H](C(=O)N[C@@H](CSCC(=O)N[C@@H]1O[C@H](CO)[C@@H](O[C@@H]2O[C@H](CO)[C@@H](O[C@@H]3O[C@H](CO[C@H]4O[C@H](CO)[C@@H](O)[C@H](O)[C@@H]4O[C@@H]4O[C@H](CO)[C@@H](O[C@@H]5O[C@H](CO)[C@H](O)[C@H](O)[C@H]5O)[C@H](O)[C@H]4NC(C)=O)[C@@H](O)[C@H](O[C@H]4O[C@H](CO)[C@@H](O)[C@H](O)[C@@H]4O[C@@H]4O[C@H](CO)[C@@H](O[C@@H]5O[C@H](CO)[C@H](O)[C@H](O)[C@H]5O)[C@H](O)[C@H]4NC(C)=O)[C@@H]3O)[C@H](O)[C@H]2NC(C)=O)[C@H](O)[C@H]1NC(C)=O)C(=O)NCC(=O)N[C@@H](CCCNC(=N)N)C(=O)NCC(=O)O)C(C)C [Example 27, 34Cys GLP-1-asialo]",,,strong effect of suppressing rise in blood-sugar levels,,,activity equal to or more than that of the GLP-1,,
